In patent US5368707A, “Convenient determination of trace lead in whole blood and other fluids” (priority 1993, dated 1994):

Molecular target: T1, isocitrate dehydrogenase (Sus scrofa, UniProt P33198)
T1 construct: purchased Sigma, St. Louis, Mo; ICD Type VI
T1 sequence (P33198 9-421): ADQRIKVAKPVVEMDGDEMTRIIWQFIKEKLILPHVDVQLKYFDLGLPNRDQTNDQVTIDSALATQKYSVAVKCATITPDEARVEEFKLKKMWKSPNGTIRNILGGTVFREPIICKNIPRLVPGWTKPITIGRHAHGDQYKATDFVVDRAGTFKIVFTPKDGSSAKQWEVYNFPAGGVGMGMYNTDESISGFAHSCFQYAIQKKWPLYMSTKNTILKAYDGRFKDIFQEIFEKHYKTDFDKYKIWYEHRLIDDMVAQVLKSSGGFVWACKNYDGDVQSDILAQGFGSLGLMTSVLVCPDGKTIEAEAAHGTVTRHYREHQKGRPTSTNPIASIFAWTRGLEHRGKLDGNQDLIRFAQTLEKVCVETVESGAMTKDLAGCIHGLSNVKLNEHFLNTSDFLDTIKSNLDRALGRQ
Assay: Effect of pH on inhibition of isocitrate dehydrogenase by lead ion (Example 7)
Format: biochemical, pig
Settings: for Current / Inhibition: 1.0 U/mL enzyme, 50 mM Tris
Protocol: The inventors have shown that less than 1 μg/dL of lead in solution may be measured employing the enzyme isocitrate dehydrogenase. The measurements are sensitive to several factors, including pH, enzyme concentration, co-factor concentration and temperature. The following example illustrates the effect of pH on enzyme inhibition.
Inhibition of the enzyme isocitrate dehydrogenase was calculated based on the amperometric signal (I) which is the mediator oxidation current measured with a glassy carbon electrode at an applied potential of +100 mV. Inhibition was determined as (Iuninhibited -Iinhibited)/Iuninhibited. 50 mM Tris buffer at various pH values as shown in Table 2 was used with 1.0 U/mL enzyme in the solution.

Work on [Pb+2] [lead ion] yielded a Current (pH 7.5, 5.5 μg/dL Pb) of 749 nA, an Inhibition (pH 7.5, 5.5 μg/dL Pb) of 0% and a Current (pH 7.5, 11.1 μg/dL Pb) of 754 nA. For the same molecule, the Inhibition (pH 7.5, 11.1 μg/dL Pb) was 0%, the Current (pH 7.5, 16.6 μg/dL Pb) was 760 nA and the Inhibition (pH 7.5, 16.6 μg/dL Pb) was -1%. For the same molecule, the Current (pH 7.5, 22.1 μg/dL Pb) was 750 nA, the Inhibition (pH 7.5, 22.1 μg/dL Pb) was 0% and the Current (pH 7.5, 27.6 μg/dL Pb) was 761 nA. The Inhibition (pH 7.5, 27.6 μg/dL Pb) was -1%, the “Inhibition (in words)” value (pH 7.5, 27.6 μg/dL lead) was “no significant inhibition” and the “Inhibition (in words)” value (pH 7.5, up to about 28 mg per deciliter lead (so in the source)) was “very little if any inhibition”. It also gave a Current (pH 8.0, 5.5 μg/dL Pb) of 673 nA, an Inhibition (pH 8.0, 5.5 μg/dL Pb) of 6% and a Current (pH 8.0, 11.1 μg/dL Pb) of 613 nA. The Inhibition (pH 8.0, 11.1 μg/dL Pb) was 14%, the Current (pH 8.0, 16.6 μg/dL Pb) was 532 nA and the Inhibition (pH 8.0, 16.6 μg/dL Pb) was 25%. The Current (pH 8.0, 22.1 μg/dL Pb) was 439 nA, the Inhibition (pH 8.0, 22.1 μg/dL Pb) was 38% and the Current (pH 8.0, 27.6 μg/dL Pb) was 303 nA. For the same molecule, the Inhibition (pH 8.0, 27.6 μg/dL Pb) was 58%, the enzyme inhibition (pH 8, up to about 28 mg per deciliter lead (so in the source)) was “about 60%” and the Current (pH 8.5, 5.5 μg/dL Pb) was 636 nA. It also gave an Inhibition (pH 8.5, 5.5 μg/dL Pb) of 18%, a Current (pH 8.5, 11.1 μg/dL Pb) of 522 nA and an Inhibition (pH 8.5, 11.1 μg/dL Pb) of 33%. For the same molecule, the Current (pH 8.5, 16.6 μg/dL Pb) was 406 nA, the Inhibition (pH 8.5, 16.6 μg/dL Pb) was “less than 50%” and the Inhibition (pH 8.5, 16.6 μg/dL Pb, listed as Lead ion) was 48%. The Current (pH 8.5, 22.1 μg/dL Pb) was 241 nA, the Inhibition (pH 8.5, 22.1 μg/dL Pb) was 69% and the Current (pH 8.5, 27.6 μg/dL Pb) was 99 nA. For the same molecule, the Inhibition (pH 8.5, 27.6 μg/dL Pb, listed as Lead ion) was 87%, the Inhibition (pH 8.5, 27.6 μg/dL Pb, listed as lead) was “approximately 87%” and the enzyme inhibition (pH 8.5, up to about 28 mg per deciliter lead (so in the source)) was “about 90%”. For the same molecule, the Current (pH 9.0, 5.5 μg/dL Pb) was 4 nA, the Inhibition (pH 9.0, 5.5 μg/dL Pb) was 99% and the Current (pH 9.0, 11.1 μg/dL Pb) was 21 nA. The Inhibition (pH 9.0, 11.1 μg/dL Pb) was 98%, the “Inhibition (in words)” value (pH 9.0, between 0 and 5.5 mg per deciliter lead (so in the source)) was “complete inhibition” and the “Inhibition (in words)” value (pH 9.0, up to 5.5 μg/dL lead) was “completely inhibited”.
